Measurements as given in the kinase profiling compilation of Christmann-Franck et al. (2016).

How the values were obtained:
[1] = molecular target: ROCK2 (human) (UniProt O75116); assay: KINOMEscan competition binding; conditions: compound 10.0 µM
[2] = molecular target: PIK3CD (human) (UniProt O00329); assay: KINOMEscan competition binding; conditions: compound 10.0 µM
[3] = molecular target: MAPK7 (human) (UniProt Q13164); assay: KINOMEscan competition binding; conditions: compound 10.0 µM
[4] = molecular target: EPHA1 (human) (UniProt P21709); assay: KINOMEscan competition binding; conditions: compound 10.0 µM
[5] = molecular target: STK11 (human) (UniProt Q15831); assay: KINOMEscan competition binding; conditions: compound 10.0 µM
Chain of STK11 (human) (Q15831 whole entry, looked up): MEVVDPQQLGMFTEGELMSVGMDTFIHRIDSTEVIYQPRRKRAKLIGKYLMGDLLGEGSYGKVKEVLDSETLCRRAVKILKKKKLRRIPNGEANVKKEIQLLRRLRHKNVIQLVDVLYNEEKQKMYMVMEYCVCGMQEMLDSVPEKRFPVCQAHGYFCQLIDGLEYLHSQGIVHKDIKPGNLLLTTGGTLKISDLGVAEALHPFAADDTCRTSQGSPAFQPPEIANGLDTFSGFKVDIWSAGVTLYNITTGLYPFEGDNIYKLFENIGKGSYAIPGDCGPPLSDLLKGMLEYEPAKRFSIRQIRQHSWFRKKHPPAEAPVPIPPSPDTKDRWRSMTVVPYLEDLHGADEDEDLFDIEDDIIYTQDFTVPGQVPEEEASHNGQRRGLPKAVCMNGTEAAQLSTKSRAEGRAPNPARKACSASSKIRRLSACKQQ

[6] = molecular target: FGFR2 (human) (UniProt P21802); assay: KINOMEscan competition binding; conditions: compound 10.0 µM
[7] = molecular target: TTK (human) (UniProt P33981); assay: KINOMEscan competition binding; conditions: compound 10.0 µM
[8] = molecular target: DDR2 (human) (UniProt Q16832); assay: KINOMEscan competition binding; conditions: compound 10.0 µM
[9] = molecular target: SRPK2 (human) (UniProt P78362); assay: KINOMEscan competition binding; conditions: compound 10.0 µM
[10] = molecular target: MAPK4 (human) (UniProt P31152); assay: KINOMEscan competition binding; conditions: compound 10.0 µM
[11] = molecular target: NUAK1 (human) (UniProt O60285); assay: KINOMEscan competition binding; conditions: compound 10.0 µM
Chain of NUAK1 (human) (O60285 whole entry, looked up): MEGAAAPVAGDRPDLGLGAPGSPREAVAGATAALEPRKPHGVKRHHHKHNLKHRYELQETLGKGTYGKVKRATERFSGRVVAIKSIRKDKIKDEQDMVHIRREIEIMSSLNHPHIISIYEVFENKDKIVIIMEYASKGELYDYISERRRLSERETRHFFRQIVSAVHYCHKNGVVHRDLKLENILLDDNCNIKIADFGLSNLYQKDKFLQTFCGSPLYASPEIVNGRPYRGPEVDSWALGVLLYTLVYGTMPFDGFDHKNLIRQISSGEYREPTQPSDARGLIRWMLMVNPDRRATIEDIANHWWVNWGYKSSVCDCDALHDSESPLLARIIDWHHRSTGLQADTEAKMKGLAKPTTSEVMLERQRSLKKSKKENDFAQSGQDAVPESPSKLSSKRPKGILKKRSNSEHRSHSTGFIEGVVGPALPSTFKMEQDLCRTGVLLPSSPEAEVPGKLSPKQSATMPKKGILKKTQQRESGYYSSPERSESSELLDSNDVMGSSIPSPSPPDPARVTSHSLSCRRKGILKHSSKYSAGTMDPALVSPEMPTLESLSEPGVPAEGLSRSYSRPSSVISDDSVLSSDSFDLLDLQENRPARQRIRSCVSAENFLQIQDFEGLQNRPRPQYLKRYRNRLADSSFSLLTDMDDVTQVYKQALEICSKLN

[12] = molecular target: SRPK1 (human) (UniProt Q96SB4); assay: KINOMEscan competition binding; conditions: compound 10.0 µM
[13] = molecular target: PDPK1 (human) (UniProt O15530); assay: KINOMEscan competition binding; conditions: compound 10.0 µM
[14] = molecular target: PRKX (human) (UniProt P51817); assay: KINOMEscan competition binding; conditions: compound 10.0 µM
[15] = molecular target: CDK15 (human) (UniProt Q96Q40); assay: KINOMEscan competition binding; conditions: compound 10.0 µM
[16] = molecular target: LIMK2 (human) (UniProt P53671); assay: KINOMEscan competition binding; conditions: compound 10.0 µM
[17] = molecular target: EPHB3 (human) (UniProt P54753); assay: KINOMEscan competition binding; conditions: compound 10.0 µM
[18] = molecular target: IGF1R (human) (UniProt P08069); assay: KINOMEscan competition binding; conditions: compound 10.0 µM
[19] = molecular target: JAK3 JH1 catalytic (human) (UniProt P52333); assay: KINOMEscan competition binding; conditions: compound 10.0 µM
[20] = molecular target: MST4 (human) (UniProt Q9P289); assay: KINOMEscan competition binding; conditions: compound 10.0 µM
[21] = molecular target: ULK2 (human) (UniProt Q8IYT8); assay: KINOMEscan competition binding; conditions: compound 10.0 µM
[22] = molecular target: TYK2 JH1 catalytic (human) (UniProt P29597); assay: KINOMEscan competition binding; conditions: compound 10.0 µM
[23] = molecular target: FGFR3 (human) (UniProt P22607); assay: KINOMEscan competition binding; conditions: compound 10.0 µM
[24] = molecular target: CHEK2 (human) (UniProt O96017); assay: KINOMEscan competition binding; conditions: compound 10.0 µM
Chain of CHEK2 (human) (O96017 whole entry, looked up): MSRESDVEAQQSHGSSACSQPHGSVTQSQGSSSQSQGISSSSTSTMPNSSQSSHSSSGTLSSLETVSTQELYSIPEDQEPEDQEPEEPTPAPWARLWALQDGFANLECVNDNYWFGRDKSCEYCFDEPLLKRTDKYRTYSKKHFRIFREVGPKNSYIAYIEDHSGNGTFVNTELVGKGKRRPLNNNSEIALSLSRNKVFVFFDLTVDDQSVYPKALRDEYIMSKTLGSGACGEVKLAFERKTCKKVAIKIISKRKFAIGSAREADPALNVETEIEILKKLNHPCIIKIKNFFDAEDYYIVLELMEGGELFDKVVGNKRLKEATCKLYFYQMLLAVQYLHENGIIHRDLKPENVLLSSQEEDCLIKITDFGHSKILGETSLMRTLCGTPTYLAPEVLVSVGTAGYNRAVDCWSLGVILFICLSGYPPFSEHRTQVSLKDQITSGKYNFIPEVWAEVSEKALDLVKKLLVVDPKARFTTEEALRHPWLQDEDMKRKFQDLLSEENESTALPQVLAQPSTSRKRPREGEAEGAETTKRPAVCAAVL

[25] = molecular target: TEK (human) (UniProt Q02763); assay: KINOMEscan competition binding; conditions: compound 10.0 µM
[26] = molecular target: JAK2 JH1 catalytic (human) (UniProt O60674); assay: KINOMEscan competition binding; conditions: compound 10.0 µM
[27] = molecular target: MAP2K4 (human) (UniProt P45985); assay: KINOMEscan competition binding; conditions: compound 10.0 µM
[28] = molecular target: CDK3 (human) (UniProt Q00526); assay: KINOMEscan competition binding; conditions: compound 10.0 µM
Chain of CDK3 (human) (Q00526 whole entry, looked up): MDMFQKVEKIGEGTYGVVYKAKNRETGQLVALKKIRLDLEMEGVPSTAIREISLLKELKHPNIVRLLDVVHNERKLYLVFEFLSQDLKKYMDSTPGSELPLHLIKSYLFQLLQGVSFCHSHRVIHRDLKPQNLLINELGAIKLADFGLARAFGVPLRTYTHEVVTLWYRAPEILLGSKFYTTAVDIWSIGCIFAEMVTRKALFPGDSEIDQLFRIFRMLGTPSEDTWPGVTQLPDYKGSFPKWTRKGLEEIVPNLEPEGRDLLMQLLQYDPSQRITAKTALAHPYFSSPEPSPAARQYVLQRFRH

[29] = molecular target: EPHB1 (human) (UniProt P54762); assay: KINOMEscan competition binding; conditions: compound 10.0 µM
[30] = molecular target: BMPR1A (human) (UniProt P36894); assay: KINOMEscan competition binding; conditions: compound 10.0 µM
[31] = molecular target: MKNK1 (human) (UniProt Q9BUB5); assay: KINOMEscan competition binding; conditions: compound 10.0 µM
[32] = molecular target: SYK (human) (UniProt P43405); assay: KINOMEscan competition binding; conditions: compound 10.0 µM
[33] = molecular target: CSNK1G3 (human) (UniProt Q9Y6M4); assay: KINOMEscan competition binding; conditions: compound 10.0 µM
[34] = molecular target: CAMK1G (human) (UniProt Q96NX5); assay: KINOMEscan competition binding; conditions: compound 10.0 µM
[35] = molecular target: TLK1 (human) (UniProt Q9UKI8); assay: KINOMEscan competition binding; conditions: compound 10.0 µM
Chain of TLK1 (human) (Q9UKI8 whole entry, looked up): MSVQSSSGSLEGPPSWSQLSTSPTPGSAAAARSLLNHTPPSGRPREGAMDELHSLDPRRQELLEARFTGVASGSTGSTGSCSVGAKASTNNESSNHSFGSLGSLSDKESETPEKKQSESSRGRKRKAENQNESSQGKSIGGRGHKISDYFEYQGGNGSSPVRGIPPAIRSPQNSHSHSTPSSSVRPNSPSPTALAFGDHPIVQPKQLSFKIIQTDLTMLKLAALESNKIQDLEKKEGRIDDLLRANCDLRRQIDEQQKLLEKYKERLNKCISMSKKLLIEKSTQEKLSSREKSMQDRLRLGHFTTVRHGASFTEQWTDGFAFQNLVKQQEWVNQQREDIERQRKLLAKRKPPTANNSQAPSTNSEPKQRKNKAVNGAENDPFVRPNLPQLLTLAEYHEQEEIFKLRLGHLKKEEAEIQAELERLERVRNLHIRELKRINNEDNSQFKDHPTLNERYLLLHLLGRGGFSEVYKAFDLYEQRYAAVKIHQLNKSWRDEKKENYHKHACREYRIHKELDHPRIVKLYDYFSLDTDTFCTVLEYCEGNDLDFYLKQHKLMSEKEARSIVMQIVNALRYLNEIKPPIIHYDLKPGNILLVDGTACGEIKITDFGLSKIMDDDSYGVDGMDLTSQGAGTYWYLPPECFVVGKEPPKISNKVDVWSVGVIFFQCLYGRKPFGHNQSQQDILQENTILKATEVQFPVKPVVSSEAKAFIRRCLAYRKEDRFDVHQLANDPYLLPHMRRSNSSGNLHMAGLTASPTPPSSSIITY

[36] = molecular target: PRKCE (human) (UniProt Q02156); assay: KINOMEscan competition binding; conditions: compound 10.0 µM
[37] = molecular target: PKMYT1 (human) (UniProt Q99640); assay: KINOMEscan competition binding; conditions: compound 10.0 µM
[38] = molecular target: MAPK1 (human) (UniProt P28482); assay: KINOMEscan competition binding; conditions: compound 10.0 µM
Chain of MAPK1 (human) (P28482 whole entry, looked up): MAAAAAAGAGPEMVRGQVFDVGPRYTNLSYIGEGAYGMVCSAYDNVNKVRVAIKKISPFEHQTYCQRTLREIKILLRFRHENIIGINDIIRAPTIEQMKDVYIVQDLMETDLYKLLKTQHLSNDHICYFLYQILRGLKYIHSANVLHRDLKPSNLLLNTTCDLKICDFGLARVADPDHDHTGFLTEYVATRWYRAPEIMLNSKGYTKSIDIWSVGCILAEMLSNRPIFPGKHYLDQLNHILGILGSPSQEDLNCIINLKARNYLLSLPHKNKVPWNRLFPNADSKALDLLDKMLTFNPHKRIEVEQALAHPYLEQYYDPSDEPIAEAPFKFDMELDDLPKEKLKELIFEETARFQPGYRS

[39] = molecular target: CAMKK2 (human) (UniProt Q96RR4); assay: KINOMEscan competition binding; conditions: compound 10.0 µM
Chain of CAMKK2 (human) (Q96RR4 whole entry, looked up): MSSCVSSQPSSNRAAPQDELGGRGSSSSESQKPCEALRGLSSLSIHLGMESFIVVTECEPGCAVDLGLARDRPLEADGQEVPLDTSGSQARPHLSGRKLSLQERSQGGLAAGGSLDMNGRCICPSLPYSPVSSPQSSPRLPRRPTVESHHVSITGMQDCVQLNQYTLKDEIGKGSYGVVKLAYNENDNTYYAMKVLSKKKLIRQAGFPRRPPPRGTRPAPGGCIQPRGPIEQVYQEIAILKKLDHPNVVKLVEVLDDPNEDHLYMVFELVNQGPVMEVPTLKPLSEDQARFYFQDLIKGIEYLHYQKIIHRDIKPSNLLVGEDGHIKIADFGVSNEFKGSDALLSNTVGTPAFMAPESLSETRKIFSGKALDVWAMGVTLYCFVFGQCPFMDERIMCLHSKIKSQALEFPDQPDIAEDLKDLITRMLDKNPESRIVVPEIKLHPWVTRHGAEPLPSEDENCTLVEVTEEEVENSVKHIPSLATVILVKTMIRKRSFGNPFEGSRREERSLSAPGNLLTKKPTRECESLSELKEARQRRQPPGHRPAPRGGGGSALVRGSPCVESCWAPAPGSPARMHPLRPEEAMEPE

[40] = molecular target: PAK1 (human) (UniProt Q13153); assay: KINOMEscan competition binding; conditions: compound 10.0 µM
Chain of PAK1 (human) (Q13153 whole entry, looked up): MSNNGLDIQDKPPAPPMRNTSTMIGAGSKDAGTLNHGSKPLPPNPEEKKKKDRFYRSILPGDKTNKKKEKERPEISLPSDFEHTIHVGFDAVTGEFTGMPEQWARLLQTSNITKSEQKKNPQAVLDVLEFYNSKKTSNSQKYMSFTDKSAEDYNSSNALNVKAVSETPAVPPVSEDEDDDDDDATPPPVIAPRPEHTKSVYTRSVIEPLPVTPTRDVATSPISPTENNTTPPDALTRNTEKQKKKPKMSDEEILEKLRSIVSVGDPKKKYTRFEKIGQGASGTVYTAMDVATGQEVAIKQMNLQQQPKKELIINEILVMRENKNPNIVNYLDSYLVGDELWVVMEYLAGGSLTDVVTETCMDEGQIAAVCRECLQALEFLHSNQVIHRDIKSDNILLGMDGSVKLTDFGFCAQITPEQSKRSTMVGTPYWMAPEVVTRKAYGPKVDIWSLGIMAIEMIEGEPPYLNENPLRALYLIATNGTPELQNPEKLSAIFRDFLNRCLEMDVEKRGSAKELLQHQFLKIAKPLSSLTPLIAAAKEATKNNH

[41] = molecular target: PAK6 (human) (UniProt Q9NQU5); assay: KINOMEscan competition binding; conditions: compound 10.0 µM
[42] = molecular target: FES (human) (UniProt P07332); assay: Z-Lyte, FRET

Chain of MAPK7 (human) (Q13164 whole entry, looked up): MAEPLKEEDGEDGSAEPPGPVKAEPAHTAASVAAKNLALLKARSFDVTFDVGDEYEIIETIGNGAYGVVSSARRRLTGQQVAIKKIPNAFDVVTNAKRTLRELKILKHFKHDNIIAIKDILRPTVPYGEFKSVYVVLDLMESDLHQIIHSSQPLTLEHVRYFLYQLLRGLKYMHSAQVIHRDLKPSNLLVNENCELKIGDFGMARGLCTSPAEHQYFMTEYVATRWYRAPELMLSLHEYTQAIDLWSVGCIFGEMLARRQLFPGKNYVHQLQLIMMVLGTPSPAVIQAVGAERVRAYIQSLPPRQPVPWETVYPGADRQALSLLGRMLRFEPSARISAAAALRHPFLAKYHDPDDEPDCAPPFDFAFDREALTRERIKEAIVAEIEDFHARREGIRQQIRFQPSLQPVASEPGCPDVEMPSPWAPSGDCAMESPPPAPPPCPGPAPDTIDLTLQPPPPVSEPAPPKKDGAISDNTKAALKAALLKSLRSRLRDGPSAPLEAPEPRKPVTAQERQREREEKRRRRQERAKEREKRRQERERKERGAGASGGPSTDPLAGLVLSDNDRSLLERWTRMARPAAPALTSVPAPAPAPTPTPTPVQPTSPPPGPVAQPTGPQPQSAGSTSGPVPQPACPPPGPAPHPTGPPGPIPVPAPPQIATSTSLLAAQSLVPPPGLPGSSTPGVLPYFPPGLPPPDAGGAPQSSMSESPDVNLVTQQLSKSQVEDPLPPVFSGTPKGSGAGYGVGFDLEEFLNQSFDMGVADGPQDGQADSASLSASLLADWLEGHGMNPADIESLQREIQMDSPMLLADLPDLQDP

`CCN1CCN(Cc2ccc(NC(=O)c3ccc(C)c(/C=C/c4cnc(Nc5cc(N6CCNCC6)nc(C)n5)cn4)c3)cc2C(F)(F)F)CC1` gave a kinase still bound, per cent of control [1] of 51%, a kinase still bound, per cent of control [2] of 50% and a kinase still bound, per cent of control [3] of 100%. It also gave a kinase still bound, per cent of control [4] of 10%, a kinase still bound, per cent of control [5] of 76% and a kinase still bound, per cent of control [6] of 10%. For the same molecule, the kinase still bound, per cent of control [7] was 85%, the kinase still bound, per cent of control [8] was 0% and the kinase still bound, per cent of control [9] was 100%. The kinase still bound, per cent of control [10] was 100%, the kinase still bound, per cent of control [11] was 98% and the kinase still bound, per cent of control [12] was 77%. For the same molecule, the kinase still bound, per cent of control [13] was 100%, the kinase still bound, per cent of control [14] was 100% and the kinase still bound, per cent of control [15] was 53%. It also gave a kinase still bound, per cent of control [16] of 9.6%, a kinase still bound, per cent of control [17] of 100% and a kinase still bound, per cent of control [18] of 87%. For the same molecule, the kinase still bound, per cent of control [19] was 3.2%, the kinase still bound, per cent of control [20] was 4.6% and the kinase still bound, per cent of control [21] was 32%. It also gave a kinase still bound, per cent of control [22] of 29%, a kinase still bound, per cent of control [23] of 12% and a kinase still bound, per cent of control [24] of 83%. It also gave a kinase still bound, per cent of control [25] of 0%, a kinase still bound, per cent of control [26] of 29% and a kinase still bound, per cent of control [27] of 100%. It also gave a kinase still bound, per cent of control [28] of 100%, a kinase still bound, per cent of control [29] of 16% and a kinase still bound, per cent of control [30] of 100%. It also gave a kinase still bound, per cent of control [31] of 89%, a kinase still bound, per cent of control [32] of 15% and a kinase still bound, per cent of control [33] of 100%. It also gave a kinase still bound, per cent of control [34] of 99%, a kinase still bound, per cent of control [35] of 100% and a kinase still bound, per cent of control [36] of 68%. The kinase still bound, per cent of control [37] was 100%, the kinase still bound, per cent of control [38] was 100% and the kinase still bound, per cent of control [39] was 95%. For the same molecule, the kinase still bound, per cent of control [40] was 87%, the kinase still bound, per cent of control [41] was 91% and the IC50 [42] was 224 µM.
